In ChEMBL document CHEMBL4130521, “Artificial Macrocycles as Potent p53-MDM2 Inhibitors” (ACS Med Chem Lett, 2017):

Molecular target: E3 ubiquitin-protein ligase Mdm2 (Homo sapiens, UniProt Q00987)
Sequence (Q00987 whole entry): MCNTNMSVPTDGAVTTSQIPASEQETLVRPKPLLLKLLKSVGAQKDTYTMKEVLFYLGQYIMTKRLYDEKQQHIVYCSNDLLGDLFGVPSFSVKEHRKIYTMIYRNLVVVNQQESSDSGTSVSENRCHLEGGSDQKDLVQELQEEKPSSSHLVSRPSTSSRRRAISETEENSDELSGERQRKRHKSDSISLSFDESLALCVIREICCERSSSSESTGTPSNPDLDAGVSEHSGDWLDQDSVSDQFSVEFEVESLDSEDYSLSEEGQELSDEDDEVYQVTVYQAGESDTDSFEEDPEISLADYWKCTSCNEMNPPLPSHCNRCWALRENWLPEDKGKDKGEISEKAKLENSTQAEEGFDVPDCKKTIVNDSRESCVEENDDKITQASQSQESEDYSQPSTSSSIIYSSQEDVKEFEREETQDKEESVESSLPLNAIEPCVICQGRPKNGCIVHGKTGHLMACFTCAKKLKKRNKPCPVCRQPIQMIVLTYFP

SMILES | Ki
O=C(O)c1[nH]c2cc(Cl)ccc2c1C1C(=O)NCCCCCCCCCCCCCC(=O)N1Cc1ccc(Cl)cc1 (stereo not drawn) | Not Active
O=C(O)c1[nH]c2cc(Cl)ccc2c1C1C(=O)NCCCCCCCCCCCCCC(=O)N1Cc1ccc(F)cc1 (stereo not drawn) | Not Active
CCOC(=O)c1[nH]c2cc(Cl)ccc2c1C1C(=O)NCCCCCCCCCCCCCCCCCCCC(=O)N1Cc1ccc(OCc2ccc(Cl)c(Cl)c2)cc1 (stereo not drawn) | Not Active
